Data reported in ChEMBL document CHEMBL5465560, “Selectivity Literature for EUbOPEN Chemogenomic Library” (2024).

Legend:
[1] = molecular target: 5'-AMP-activated protein kinase catalytic subunit alpha-2 (Homo sapiens) (UniProt P54646); assay: Selectivity interaction (KinomeScan (DiscoverX)) EUB0000092b PRKAA2; settings: at 10 µM
[2] = molecular target: Ribosomal protein S6 kinase alpha-2 (Homo sapiens) (UniProt Q15349); assay: Selectivity interaction (KinomeScan (DiscoverX)) EUB0000092b RPS6KA2; settings: at 10 µM
Chain of Ribosomal protein S6 kinase alpha-2 (Homo sapiens) (Q15349 whole entry): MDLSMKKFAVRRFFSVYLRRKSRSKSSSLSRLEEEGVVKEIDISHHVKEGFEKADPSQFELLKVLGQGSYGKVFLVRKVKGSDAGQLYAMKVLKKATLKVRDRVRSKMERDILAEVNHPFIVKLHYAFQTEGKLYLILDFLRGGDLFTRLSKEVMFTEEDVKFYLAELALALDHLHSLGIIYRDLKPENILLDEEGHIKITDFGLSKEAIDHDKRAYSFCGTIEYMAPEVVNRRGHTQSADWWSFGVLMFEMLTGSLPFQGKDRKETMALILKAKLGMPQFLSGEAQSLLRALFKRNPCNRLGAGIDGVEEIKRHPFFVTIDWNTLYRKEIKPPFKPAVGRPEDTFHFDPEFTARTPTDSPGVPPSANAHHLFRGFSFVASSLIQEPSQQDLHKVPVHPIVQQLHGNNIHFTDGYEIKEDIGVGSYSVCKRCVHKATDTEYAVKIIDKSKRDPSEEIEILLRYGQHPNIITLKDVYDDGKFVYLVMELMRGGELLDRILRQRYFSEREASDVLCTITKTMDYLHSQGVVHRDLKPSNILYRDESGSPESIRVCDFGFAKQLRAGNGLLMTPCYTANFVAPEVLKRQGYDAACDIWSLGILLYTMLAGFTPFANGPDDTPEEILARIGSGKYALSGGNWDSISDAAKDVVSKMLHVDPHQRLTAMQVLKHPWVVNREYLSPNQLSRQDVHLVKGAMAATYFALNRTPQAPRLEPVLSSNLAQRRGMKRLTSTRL

[3] = molecular target: T1, Protein kinase C iota type (Homo sapiens) (UniProt P41743); assay: Selectivity interaction (Upstate Kinase Profiler service (Millipore)) EUB0000056c PRKCI; settings: at 1 µM
T1 sequence (whole entry): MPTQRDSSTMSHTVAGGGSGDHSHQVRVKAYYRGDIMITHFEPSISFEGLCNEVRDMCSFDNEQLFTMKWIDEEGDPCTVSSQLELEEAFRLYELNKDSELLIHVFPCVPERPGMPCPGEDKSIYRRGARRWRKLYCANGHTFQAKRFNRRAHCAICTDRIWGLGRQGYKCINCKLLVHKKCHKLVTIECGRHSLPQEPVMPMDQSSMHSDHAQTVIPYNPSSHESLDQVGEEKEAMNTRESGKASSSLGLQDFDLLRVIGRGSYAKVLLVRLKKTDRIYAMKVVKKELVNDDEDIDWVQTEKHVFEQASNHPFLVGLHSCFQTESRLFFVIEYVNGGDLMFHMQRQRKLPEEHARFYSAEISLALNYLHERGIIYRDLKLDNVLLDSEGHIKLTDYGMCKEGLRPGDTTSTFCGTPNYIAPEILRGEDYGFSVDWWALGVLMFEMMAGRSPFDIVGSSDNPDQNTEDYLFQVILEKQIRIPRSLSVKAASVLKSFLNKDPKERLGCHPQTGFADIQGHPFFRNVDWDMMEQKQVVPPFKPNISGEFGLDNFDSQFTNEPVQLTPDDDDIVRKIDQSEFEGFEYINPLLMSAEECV

[4] = molecular target: T2, Proto-oncogene tyrosine-protein kinase receptor Ret (Homo sapiens, UniProt P07949); assay: Selectivity interaction (Upstate Kinase Profiler service (Millipore)) EUB0000056c RET; settings: at 1 µM
T2 sequence (P07949 whole entry): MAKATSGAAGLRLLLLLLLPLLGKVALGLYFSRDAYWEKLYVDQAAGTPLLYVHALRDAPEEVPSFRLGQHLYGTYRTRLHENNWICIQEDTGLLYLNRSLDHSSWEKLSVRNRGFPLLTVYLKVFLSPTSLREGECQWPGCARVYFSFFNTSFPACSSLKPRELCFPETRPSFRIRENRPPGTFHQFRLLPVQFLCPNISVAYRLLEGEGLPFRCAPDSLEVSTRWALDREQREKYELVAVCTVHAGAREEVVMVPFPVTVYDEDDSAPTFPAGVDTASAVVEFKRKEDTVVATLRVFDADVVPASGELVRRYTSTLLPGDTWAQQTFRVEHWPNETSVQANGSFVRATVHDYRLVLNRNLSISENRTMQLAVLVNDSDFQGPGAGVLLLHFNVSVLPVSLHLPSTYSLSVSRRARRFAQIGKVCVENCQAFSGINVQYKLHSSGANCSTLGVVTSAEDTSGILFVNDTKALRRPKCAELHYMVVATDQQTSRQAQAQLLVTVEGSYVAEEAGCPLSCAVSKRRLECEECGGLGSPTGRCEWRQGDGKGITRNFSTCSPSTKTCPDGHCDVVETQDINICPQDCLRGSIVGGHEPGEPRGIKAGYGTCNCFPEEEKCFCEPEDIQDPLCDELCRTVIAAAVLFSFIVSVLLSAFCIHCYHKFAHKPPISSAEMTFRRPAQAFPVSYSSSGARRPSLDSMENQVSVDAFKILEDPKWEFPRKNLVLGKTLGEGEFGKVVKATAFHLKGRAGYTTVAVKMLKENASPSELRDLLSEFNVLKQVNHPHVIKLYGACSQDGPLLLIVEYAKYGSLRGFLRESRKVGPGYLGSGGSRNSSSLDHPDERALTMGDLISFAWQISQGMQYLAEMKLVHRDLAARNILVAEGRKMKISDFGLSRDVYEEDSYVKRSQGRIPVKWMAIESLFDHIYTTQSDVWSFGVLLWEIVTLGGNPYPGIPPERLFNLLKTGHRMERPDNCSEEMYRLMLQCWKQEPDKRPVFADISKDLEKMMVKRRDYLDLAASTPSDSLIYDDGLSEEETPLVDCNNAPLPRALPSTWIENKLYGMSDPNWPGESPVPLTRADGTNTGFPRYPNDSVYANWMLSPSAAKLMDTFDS

[5] = molecular target: T3, Serine/threonine-protein kinase BRSK1 (Homo sapiens) (UniProt Q8TDC3); assay: Selectivity interaction (KinomeScan (DiscoverX)) EUB0000655a BRSK1; settings: at 10 µM
T3 sequence (whole entry): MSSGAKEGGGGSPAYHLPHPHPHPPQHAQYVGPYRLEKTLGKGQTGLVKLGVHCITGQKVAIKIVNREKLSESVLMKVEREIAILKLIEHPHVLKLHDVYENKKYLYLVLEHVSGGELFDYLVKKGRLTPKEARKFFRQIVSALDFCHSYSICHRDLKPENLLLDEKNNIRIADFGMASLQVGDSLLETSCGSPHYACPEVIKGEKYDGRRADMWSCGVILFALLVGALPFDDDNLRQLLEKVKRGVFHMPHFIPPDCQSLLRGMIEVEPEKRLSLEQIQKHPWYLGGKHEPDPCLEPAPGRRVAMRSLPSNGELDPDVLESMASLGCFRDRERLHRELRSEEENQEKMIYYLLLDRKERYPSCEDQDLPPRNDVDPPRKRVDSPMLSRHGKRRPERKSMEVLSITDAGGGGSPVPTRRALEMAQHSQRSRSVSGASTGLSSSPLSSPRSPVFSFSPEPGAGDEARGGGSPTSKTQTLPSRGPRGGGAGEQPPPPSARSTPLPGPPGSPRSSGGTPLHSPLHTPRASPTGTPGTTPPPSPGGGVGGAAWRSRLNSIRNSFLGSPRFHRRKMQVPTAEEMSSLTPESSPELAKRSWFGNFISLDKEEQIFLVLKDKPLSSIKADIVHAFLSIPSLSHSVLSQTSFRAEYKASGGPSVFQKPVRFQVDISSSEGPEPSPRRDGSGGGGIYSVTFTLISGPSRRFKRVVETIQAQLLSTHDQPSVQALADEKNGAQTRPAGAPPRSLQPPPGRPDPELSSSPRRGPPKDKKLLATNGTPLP

[6] = molecular target: Calcium/calmodulin-dependent protein kinase type II subunit beta (Homo sapiens) (UniProt Q13554); assay: Selectivity interaction (Kinase panel (DSF assay)) EUB0001559a CAMK2B
[7] = tested on: Proto-oncogene tyrosine-protein kinase receptor Ret (Homo sapiens), P07949 [V804M]; assay: (§1) Selectivity interaction (KinomeScan (DiscoverX)) EUB0001079a RET; settings: at 1 µM
Chain of Proto-oncogene tyrosine-protein kinase receptor Ret (Homo sapiens), P07949 [V804M] (P07949 whole entry V804M): as the sequence (P07949 whole entry) above, with V804M counted along it

[8] = tested on: Proto-oncogene tyrosine-protein kinase receptor Ret (Homo sapiens), P07949 [V804L]; assay: as §1; settings: at 1 µM
Chain of Proto-oncogene tyrosine-protein kinase receptor Ret (Homo sapiens), P07949 [V804L] (P07949 whole entry V804L): as the sequence (P07949 whole entry) above, with V804L counted along it

[9] = molecular target: T2, Proto-oncogene tyrosine-protein kinase receptor Ret; assay: as §1; settings: at 1 µM
[10] = tested on: Proto-oncogene tyrosine-protein kinase receptor Ret (Homo sapiens), P07949 [M918T]; assay: as §1; settings: at 1 µM
Chain of Proto-oncogene tyrosine-protein kinase receptor Ret (Homo sapiens), P07949 [M918T] (P07949 whole entry M918T): as the sequence (P07949 whole entry) above, with M918T counted along it

[11] = Selectivity interaction (KinomeScan (DiscoverX)) EUB0000666a CDK2H; settings: at 10 µM
[12] = molecular target: Serine/threonine-protein kinase WNK2 (Homo sapiens) (UniProt Q9Y3S1); assay: Selectivity interaction (ActivX KiNativ screen (kinase selectivity in THP-1 cell lysates)) EUB0000639a WNK2; assay type: subcellular; settings: lysate, at 0.04 µM
Chain of Serine/threonine-protein kinase WNK2 (Homo sapiens) (Q9Y3S1 whole entry): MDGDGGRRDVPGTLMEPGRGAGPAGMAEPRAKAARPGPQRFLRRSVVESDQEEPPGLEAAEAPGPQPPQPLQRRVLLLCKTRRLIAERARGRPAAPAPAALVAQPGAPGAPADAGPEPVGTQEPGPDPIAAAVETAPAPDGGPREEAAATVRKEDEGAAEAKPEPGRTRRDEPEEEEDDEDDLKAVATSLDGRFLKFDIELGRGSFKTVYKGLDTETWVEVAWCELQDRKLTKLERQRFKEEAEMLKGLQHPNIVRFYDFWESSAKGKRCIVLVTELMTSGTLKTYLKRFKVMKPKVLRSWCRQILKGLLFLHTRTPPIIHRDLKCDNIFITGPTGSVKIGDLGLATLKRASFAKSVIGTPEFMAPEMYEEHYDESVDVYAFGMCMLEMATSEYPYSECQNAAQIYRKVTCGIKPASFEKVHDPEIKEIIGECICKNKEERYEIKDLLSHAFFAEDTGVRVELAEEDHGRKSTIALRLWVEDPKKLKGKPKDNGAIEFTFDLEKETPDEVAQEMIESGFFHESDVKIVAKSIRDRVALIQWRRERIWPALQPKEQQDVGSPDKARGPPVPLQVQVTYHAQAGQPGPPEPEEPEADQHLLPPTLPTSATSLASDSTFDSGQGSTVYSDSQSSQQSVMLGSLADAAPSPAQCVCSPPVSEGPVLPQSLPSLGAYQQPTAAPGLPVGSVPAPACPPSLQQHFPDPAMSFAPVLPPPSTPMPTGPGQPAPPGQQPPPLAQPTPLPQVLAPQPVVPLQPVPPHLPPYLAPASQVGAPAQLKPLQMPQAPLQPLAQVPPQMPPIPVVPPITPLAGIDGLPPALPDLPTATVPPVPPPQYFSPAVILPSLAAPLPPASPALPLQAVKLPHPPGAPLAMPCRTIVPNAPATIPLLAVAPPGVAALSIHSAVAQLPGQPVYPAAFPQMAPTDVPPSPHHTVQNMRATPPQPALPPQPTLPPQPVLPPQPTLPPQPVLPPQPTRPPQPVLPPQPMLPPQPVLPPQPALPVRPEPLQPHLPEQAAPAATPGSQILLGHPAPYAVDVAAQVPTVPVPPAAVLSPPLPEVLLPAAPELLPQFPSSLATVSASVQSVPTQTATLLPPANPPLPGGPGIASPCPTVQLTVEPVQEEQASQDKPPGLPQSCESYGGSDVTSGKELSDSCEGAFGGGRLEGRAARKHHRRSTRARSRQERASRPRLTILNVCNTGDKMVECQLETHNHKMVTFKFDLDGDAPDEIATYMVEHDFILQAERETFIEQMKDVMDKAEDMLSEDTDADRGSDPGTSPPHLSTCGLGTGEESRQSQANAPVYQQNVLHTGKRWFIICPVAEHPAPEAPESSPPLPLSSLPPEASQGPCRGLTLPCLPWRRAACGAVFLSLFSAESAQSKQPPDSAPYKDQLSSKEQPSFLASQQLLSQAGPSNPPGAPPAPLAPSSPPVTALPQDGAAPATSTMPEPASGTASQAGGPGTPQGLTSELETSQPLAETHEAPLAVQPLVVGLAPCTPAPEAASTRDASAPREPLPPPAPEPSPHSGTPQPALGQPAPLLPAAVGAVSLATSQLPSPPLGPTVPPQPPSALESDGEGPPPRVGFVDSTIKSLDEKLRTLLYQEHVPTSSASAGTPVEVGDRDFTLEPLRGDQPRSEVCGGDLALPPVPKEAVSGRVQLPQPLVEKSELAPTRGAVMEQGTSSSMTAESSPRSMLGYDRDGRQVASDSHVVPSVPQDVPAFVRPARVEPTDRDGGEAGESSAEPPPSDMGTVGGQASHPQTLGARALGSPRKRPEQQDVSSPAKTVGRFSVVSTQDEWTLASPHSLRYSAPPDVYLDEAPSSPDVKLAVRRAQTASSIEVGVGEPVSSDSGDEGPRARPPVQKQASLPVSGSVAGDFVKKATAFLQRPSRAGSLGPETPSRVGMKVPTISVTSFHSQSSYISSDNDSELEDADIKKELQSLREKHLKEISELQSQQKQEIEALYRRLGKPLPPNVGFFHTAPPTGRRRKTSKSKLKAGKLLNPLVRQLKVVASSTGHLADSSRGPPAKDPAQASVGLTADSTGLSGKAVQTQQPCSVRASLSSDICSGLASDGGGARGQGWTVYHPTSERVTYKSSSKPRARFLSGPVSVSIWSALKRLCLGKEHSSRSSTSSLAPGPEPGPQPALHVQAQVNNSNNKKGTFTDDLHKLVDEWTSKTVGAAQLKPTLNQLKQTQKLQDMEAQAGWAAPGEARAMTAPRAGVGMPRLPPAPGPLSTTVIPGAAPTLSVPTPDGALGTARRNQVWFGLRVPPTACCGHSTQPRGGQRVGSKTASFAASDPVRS

[13] = molecular target: Calcium/calmodulin-dependent protein kinase type 1G (Homo sapiens) (UniProt Q96NX5); assay: Selectivity interaction (KinomeScan (DiscoverX)) EUB0001049a CAMK1G; settings: at 1 µM
[14] = molecular target: Tyrosine-protein kinase Lyn (Homo sapiens, UniProt P07948); assay: Selectivity interaction (KinomeScan (DiscoverX)) EUB0000595a LYN; settings: at 10 µM
[15] = molecular target: T4, Aurora kinase A (Homo sapiens) (UniProt O14965); assay: Selectivity interaction (Kinase panel (Carna Biosciences)) EUB0001542aTs STK6; settings: at 1 µM
T4 sequence (whole entry): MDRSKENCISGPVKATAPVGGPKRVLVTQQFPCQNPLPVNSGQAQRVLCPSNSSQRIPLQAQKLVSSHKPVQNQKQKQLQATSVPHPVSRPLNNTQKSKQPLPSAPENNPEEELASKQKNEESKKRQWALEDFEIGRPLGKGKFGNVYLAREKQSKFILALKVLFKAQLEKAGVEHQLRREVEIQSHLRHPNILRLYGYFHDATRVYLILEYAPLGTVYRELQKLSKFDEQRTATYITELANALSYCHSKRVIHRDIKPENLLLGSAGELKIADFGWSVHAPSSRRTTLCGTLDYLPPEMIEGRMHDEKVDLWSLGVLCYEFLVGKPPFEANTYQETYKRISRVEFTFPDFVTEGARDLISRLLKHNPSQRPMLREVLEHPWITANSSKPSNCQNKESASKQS

[16] = molecular target: Serine/threonine-protein kinase PAK 2 (Homo sapiens) (UniProt Q13177); assay: Selectivity interaction (Ambit KINOMEscan and KiNATiv profiling in Jurkat cells) EUB0000090b PAK2; assay type: cell-based; settings: at 1 µM
[17] = molecular target: Ribosomal protein S6 kinase alpha-3 (Homo sapiens, UniProt P51812); assay: Selectivity interaction (ActivX KiNativ screen (ex vivo kinase selectivity in human PBMCs)) EUB0001619a RPS6KA3; assay type: cell-based; settings: PBMC, at 1 µM
Chain of Ribosomal protein S6 kinase alpha-3 (P51812 whole entry): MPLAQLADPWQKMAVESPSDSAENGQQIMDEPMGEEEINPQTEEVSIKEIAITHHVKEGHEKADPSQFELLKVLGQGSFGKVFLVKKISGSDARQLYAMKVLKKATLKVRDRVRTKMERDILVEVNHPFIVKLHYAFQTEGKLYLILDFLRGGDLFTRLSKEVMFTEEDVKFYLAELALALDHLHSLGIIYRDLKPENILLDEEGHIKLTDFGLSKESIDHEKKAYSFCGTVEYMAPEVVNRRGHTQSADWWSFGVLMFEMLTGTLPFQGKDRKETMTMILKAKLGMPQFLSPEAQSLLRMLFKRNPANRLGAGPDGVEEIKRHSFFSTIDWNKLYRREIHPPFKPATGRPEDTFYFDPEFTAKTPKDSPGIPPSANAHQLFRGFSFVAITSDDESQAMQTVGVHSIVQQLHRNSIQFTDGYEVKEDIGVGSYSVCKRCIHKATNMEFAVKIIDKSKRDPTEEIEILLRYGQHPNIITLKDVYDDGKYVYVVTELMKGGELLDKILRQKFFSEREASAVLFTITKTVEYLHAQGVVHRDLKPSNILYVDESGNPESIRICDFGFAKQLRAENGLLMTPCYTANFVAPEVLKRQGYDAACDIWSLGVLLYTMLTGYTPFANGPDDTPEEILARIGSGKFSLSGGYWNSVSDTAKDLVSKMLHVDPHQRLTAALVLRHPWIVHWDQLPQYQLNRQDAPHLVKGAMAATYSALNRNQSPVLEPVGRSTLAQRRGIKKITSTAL

SMILES: CCC(=O)N1CCN(c2ccc(-n3c(=O)ccc4cnc5ccc(-c6cnc7ccccc7c6)cc5c43)cc2C(F)(F)F)CC1
- % of control [1]: 74%
- % of control [2]: 100%

SMILES: Cc1ccc(-c2ccc3c(ccc4sc5c(c43)NC[C@@H](C)NC5=O)n2)cn1
- % of inhibition [3]: -10%
- % of inhibition [4]: 46%

SMILES: CN(C)CCOc1ccc(-c2nc(-c3ccncc3)c(-c3ccc4c(c3)CC/C4=N\O)[nH]2)cc1
- % of control [5]: 76%

SMILES: CN(C(=O)c1cnn2cccnc12)c1cc2c(cc1N1CCOCC1)C(=O)N(C[C@@H](F)C(C)(C)O)C2
- dTM [6]: 0 K

SMILES: Nc1cnc(N2CCc3cc(S(=O)(=O)Nc4c(F)cc(Cl)cc4F)cc(N4CCCC4=O)c32)nc1 [TP-020n]
- % of control [7]: 100%
- % of control [8]: 99%
- % of control [9]: 89%
- % of control [10]: 100%

SMILES: O=C(NOC[C@H](O)CO)c1ccc(F)c(F)c1Nc1ccc(I)cc1F
- % of control [11]: 100%

SMILES: CC[C@@H]1[C@H](F)C(=O)N[C@@H]1COc1nccc2cc(C(N)=O)c(OC)cc12 [ZIMLOVISERTIB]
- % of inhibition [12]: -7.4%

SMILES: COc1cc(Nc2nc(C)cc(-c3cnn4nc(OC)ccc34)n2)cc(C(F)(F)F)c1
- % of control [13]: 95%

SMILES: COCC(=O)NC/C=C/c1ccc2ncnc(Nc3ccc(Oc4ccc(C)nc4)c(C)c3)c2c1 [CP-724714]
- % of control [14]: 92%

SMILES: Cn1cc(Nc2nccc(N3CC4CCC(C3)N4C(=O)[C@@H]3CC3(F)F)n2)cn1
- % of inhibition [15]: 97%

SMILES: CN(C)C/C=C/C(=O)Nc1ccc(C(=O)N2CCCC(Nc3ncc(Cl)c(-c4c[nH]c5ccccc45)n3)C2)cc1 (configuration not stated)
- % of control [16]: 84%

SMILES: N#Cc1cccc(-c2c[nH]c3ncnc(N4CCOCC4)c23)c1
- % of inhibition [17]: -3%
